Experimental data taken from patent US20110269219A1, “Method for increasing algae growth and the use thereof in production of algae-derived biofuels and other chemical” (GST Growth, LLC, priority 2010, published 2011).

System: Protococcus
Experiment: Growth of Protococcus liquid cultures monitored at Absorbance 550 nm
Assay type: cell-based
Conditions: Protococcus in water
From the text: Liquid cultures were established in the laboratory from the algae specimens collected to include three experimental treatments, which were: A control of Protococcus in water; • 1). Protococcus in water supplemented with 0.5% methanol, which is known to stimulate growth of PPFM bacteria; and • 2) Protococcus in water supplemented with a Vitamin B12 overproducing PPFM. The growth of the cultures was monitored at Absorbance 550 nm with the results below in Table 2 being obtained: […]

Q: Which results are given for `CO` [Methanol, methanol]?
A: A550 nm (After One Week): 0.094; A550 nm (After Two Weeks): 0.085; A550 nm (Start): 0.069
